US20070092444A1, “Inhibition of inward sodium currents in cancer” (priority 2003, published 2007)

Experiments:
[1] = molecular target: T1, combination of ASIC1 and ASIC2 (Homo sapiens, UniProt P78348+Q16515); test: Acid-activated currents in voltage-clamped Xenopus oocytes expressing ASIC1 and ASIC2; type: cell-based; settings: 400 μM amiloride; pHo 4.0; −60 mV
T1 construct: expressed in transfected cells; host or cells: Xenopus oocytes (cRNA injection)
Text: (§1) FIGS. 8A-C show acid-activated ASIC currents in Xenopus oocytes. ASIC 2 (FIG. 8A), ASIC1 (FIG. 8B) and the combination of ASIC2 and ASIC1 (FIG. 8C) were examined. […] Each oocyte served as its own control.
(§2) Membrane potential was held at −60 mV, and the pHo was step decreased to 4.0 for 10 s, and then returned to 7.4 for 30 s before repeating the sequence.
(§3) Xenopus oocytes were used to express ASIC1 and ASIC2 mRNA individually and in combination. Oocyte preparation, cRNA injection, and two-electrode voltage clamp recordings were performed as described (33,67-69).
as §2

[2] = tested on: inward currents in D54-MG glioma cells; test: Whole-cell patch clamp, D54-MG glioma cells; type: cell-based, human; settings: 100 μM amiloride
Description: FIGS. 7A-7C show representative whole-cell patch clamp recordings.
The amiloride-sensitive inward Na^+ currents are measured regardless of whether ASIC2 is absent or present (FIGS. 7A-D). Whole-cell patch clamp recordings were obtained from U87-MG, SK-MG, and D54-MG glioma cells in the basal state. […] This inhibition of the inward current occurred regardless of the absence or presence of ASIC2 mRNA (FIG. 7D) (as detected by RT-PCR as described above).

ASIC1 = molecular target: T2, ASIC1 (Homo sapiens, UniProt P78348); test: Acid-activated currents in voltage-clamped Xenopus oocytes expressing ASIC1; type: cell-based; settings: 400 μM amiloride; pHo 4.0; −60 mV
T2 sequence (P78348 1-528): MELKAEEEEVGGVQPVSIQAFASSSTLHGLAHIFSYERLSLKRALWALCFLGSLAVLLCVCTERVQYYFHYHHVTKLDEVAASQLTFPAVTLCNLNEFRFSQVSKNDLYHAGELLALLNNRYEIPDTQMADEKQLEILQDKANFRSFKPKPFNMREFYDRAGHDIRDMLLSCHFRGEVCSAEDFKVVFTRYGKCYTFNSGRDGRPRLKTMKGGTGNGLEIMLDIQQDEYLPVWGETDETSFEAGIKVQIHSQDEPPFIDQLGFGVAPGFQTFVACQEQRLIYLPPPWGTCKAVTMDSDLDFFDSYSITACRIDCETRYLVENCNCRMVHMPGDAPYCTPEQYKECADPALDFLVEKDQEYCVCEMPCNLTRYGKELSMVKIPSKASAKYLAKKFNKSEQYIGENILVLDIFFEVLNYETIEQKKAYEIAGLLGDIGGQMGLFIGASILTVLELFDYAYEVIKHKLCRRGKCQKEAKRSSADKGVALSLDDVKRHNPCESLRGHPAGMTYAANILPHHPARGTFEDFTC
Text: as §1, §2, §3, §2

[3] = tested on: ASIC containing channel activity in U87-MG cells; test: Single channel recording, outside-out patches from U87-MG cells; type: cell-based, human; settings: 100 μM amiloride
Description: FIGS. 23A and B show single channel records of ASIC-containing channel activity in cell attached (FIG. 23A) and outside-out patches (FIG. 23B) from U87-MG cells.
Single channel recording of ASIC containing channel activity in both cell-attached and outside-out patches from U-87MG cells are shown in FIGS. 23A and B, respectively. For cell-attached patches, the pipette solution contained RPMI 1640, matching the external bath solution used for all whole-cell clamped records. For outside-out patches the pipette solution contained (in mM) K-gluconate, 100; KCl, 30; NaCl, 10; HEPES, 20; EGTA, 0.5; ATP, 4; pH 7.2. Membrane potentials for cell-attached patches were determined as the applied potential plus the membrane potential of the cell that was measured in the whole-cell configuration as −60 mV using the pipette solution for outside-out patches. The membrane potential for outside-out patches was the equilibrium potential for sodium plus the applied potential. The average single channel conductance in the cell-attached configuration was 5.7±0.5 pS. This average conductance was calculated from each of the clamp potentials. This was compatible with the observed whole-cell currents. The kinetics of channel opening and closing were relatively slow (on the order of 0.1 to 1 s), consistent to what has been observed for ASIC-like channels in bilayers (FIG. 23A).

U87-MG cells [4] = test: Regulatory volume increase after osmotic shrinkage, Coulter counter; type: cell-based, human; settings: 80 nM PcTX1; 450 mOsM/kg
Description: U87-MG cells were mechanically dispersed, washed, and resuspended in PBS. At t=2-3 min, the osmolality of the bathing medium was increased to 450 mOsM/kg by the addition of NaCl from a 3M stock solution.

U251-MG brain tumors = test: Intracranial U251-MG xenograft in SCID mice; type: in vivo
Description: After sacrifice, brain tissue was removed, embedded with paraffin and sectioned (10 μm thick). Sections were stained using hemotoxylin and eosin. Magnifications are 1×, 4× and 20× as indicated.
In these studies, 10^6 U251-MG cells were injected directly into the right hemisphere of thirty SCID mice (FIGS. 27A-C). […] On sacrifice of the animals, the brain of each mouse was sectioned and stained with hemotoxylin and eosin. Do to the nature of the study, no difference in survival between the three groups was noted.

D54-MG glioma cells = test: Transwell Migration Assay, D54-MG cells; type: cell-based, human; settings: 3 h, vitronectin
Description: 5-8 μm polycarbonate Transwell filters were coated on the lower surface with or vitronectin ([…] in PBS). […] of D54MG cells (400,000 cells/ml were added to the upper chamber), in the presence or absence of benzamil, and migration was allowed to proceed for 3 hours. Migration was determined according to standard procedures (120). N-amidino-3,5-diamino-pyrazinecarboxamide was used as a control.
To begin to investigate the role of the inward Na^+ conductance in the invasive behavior of tumor cells, a Transwell Migration Assay was used to assess cell chemotaxis and invasiveness (FIG. 17). D54-MG cells were plated on the upper side of a filter insert perforated with 5-8 μm holes, and induced to migrate through these pores toward the extracellular matrix protein vitronectin (coated on the underside of the filter). Benzamil, at 10, 20, 50, or 100 μM, was added to both chambers at time 0. After a 3 h migration time, cells were fixed, stained with crystal violet, and counted. BSA-coated filter inserts were used as negative controls. […]
Approximately 10,000 cells were added to the upper side of a filter insert perforated with 5-8 μm holes, and induced to migrate through these pores toward the extracellular matrix protein vitronectin (coated on the underside of the filter). […] Cells were counted on an inverted microscope, averaging five fields per Transwell chamber. […]

U87-MG cells [5] = test: Transwell Migration Assay, U87-MG cells; type: cell-based, human; settings: 3 h, vitronectin

T1 sequence (Q16515 whole entry, one chain of several): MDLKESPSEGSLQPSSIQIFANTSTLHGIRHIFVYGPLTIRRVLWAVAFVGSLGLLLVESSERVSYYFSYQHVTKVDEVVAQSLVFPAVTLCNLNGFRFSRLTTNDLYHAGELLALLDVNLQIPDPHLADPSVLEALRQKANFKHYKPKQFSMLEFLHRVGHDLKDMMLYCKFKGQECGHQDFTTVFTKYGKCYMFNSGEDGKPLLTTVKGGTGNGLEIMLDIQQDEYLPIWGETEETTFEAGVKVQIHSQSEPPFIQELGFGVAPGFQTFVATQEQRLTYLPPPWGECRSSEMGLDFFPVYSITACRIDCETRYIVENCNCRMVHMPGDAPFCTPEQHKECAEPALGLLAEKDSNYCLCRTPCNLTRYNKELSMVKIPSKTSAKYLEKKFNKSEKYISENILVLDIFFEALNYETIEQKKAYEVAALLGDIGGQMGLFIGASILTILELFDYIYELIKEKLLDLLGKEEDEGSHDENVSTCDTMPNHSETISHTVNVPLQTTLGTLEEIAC

Compound: N=C(N)NC(=O)c1nc(Cl)c(N)nc1N [amiloride]
- inhibition of acid-activated currents [1]: inhibited
- inhibition of inward currents [2]: inhibited
- inhibition of acid-activated currents (ASIC1): inhibited
- inhibition of channels [3]: completely inhibited

Compound: Psalmotoxin 1 [PcTX1]
- volume recovery after shrinkage (U87-MG cells [4]): effectively prevented
- survival (U251-MG brain tumors; between the three groups): no difference
- tumor foci within the injected hemisphere (U251-MG brain tumors; injection once a week for three weeks): one
- tumor margins (U251-MG brain tumors; injection once a week for three weeks, 20× the in vitro inhibitory dose, versus saline or scrambled peptide): more clearly delineated
- diminished ability to migrate through the filter (D54-MG glioma cells): > 90%
- diminished ability to migrate through the filter (U87-MG cells [5]): > 90%
